Assay results published in US20250368623A1, “PYRIDAZINONE-DERIVED COMPOUNDS FOR THE MODULATION OF MYC AND FOR MEDICAL USES” (GENETIC INTELLIGENCE, INC, priority 2022, published 2025).

Experiments:
Assay type in all cases: cell-based
[1] = system: MDA-MB-231; assay: CCK-8 cell viability assay, MDA-MB-231; details: Homo sapiens; CCK-8, MDA-MB-231, 2-day or 3-day incubation, cytotoxic effect
Method: (§1) The effect of test compounds on cell viability is determined using the CCK-8 assay kit (Dojindo CK04-1000) according to the following protocol. The human cancer cell lines (e.g., A549, HepG2, JeKo-1, MDA-MB-231, etc.) and non-cancer human cell lines (e.g., HEK-293, HaCaT, etc.), are seeded at 20,000 cells per well in a 96-well plate. After 1 day, the cells are treated with test compounds at various final concentrations (e.g., 10 nM, 31.6 nM, 100 nM, 316 nM, 1 μM, 3.16 μM, 10 μM, 20 μM, etc.). After a 2-day or 3-day incubation period, 10 μL of CCK-8 solution, which contains the WST-8 dye, is added to each well according to the kit manufacturer's protocol. After incubation for 1-4 hours, the absorbance at 450 nm is measured using a microplate reader. The absorbance at 450 nm measures the amount of WST-8 that is reduced to WST-8 formazan by cellular dehydrogenases, which is directly proportional to the number of living cells. The cytotoxic effect of test compounds at different concentrations is calculated by subtracting from 1 the ratio of absorbance of the compound-treated sample at 450 nm to that of the no-compound, solvent only (DMSO)-treated sample. A higher number indicates a greater cytotoxic effect of the test compound on cells (corresponding to a greater reduction in cellular dehydrogenase activity), and vice versa. The IC50 values for the cytotoxic effect of each test compound in A549, HepG2, JeKo-1, and/or MDA-MB-231 cells are determined by plotting a dose-response curve to calculate the concentration of test compound that produces half of the maximum cytotoxic effect. The cytotoxic effect and IC50 of test compounds are also measured in a non-cancer human cell line (e.g., HEK-293, and/or HaCaT) as a proxy for healthy cells to determine the therapeutic window of the test compounds (i.e., the concentration range at which the test compounds selectively kill cancer cells but not healthy cells). The therapeutic index of a test compound is defined herein as its IC50 in HEK-293 cells divided by its IC50 in HepG2 cells.

[2] = system: HepG2; assay: CCK-8 cell viability assay, HepG2; details: Homo sapiens; CCK-8, HepG2, 2-day or 3-day incubation, cytotoxic effect
Method: The effect of test compounds on cell viability is determined using the CCK-8 assay kit (Dojindo CK04-1000) according to the following protocol. The human cancer cell lines (e.g., A549, HepG2, JeKo-1, MDA-MB-231, etc.) and non-cancer human cell lines (e.g., HEK-293, HaCaT, etc.), are seeded at 20,000 cells per well in a 96-well plate. After 1 day, the cells are treated with test compounds at various final concentrations (e.g., 10 nM, 31.6 nM, 100 nM, 316 nM, 1 μM, 3.16 μM, 10 μM, 20 μM, etc.). After a 2-day or 3-day incubation period, 10 μL of CCK-8 solution, which contains the WST-8 dye, is added to each well according to the kit manufacturer's protocol. After incubation for 1-4 hours, the absorbance at 450 nm is measured using a microplate reader. The absorbance at 450 nm measures the amount of WST-8 that is reduced to WST-8 formazan by cellular dehydrogenases, which is directly proportional to the number of living cells. The cytotoxic effect of test compounds at different concentrations is calculated by subtracting from 1 the ratio of absorbance of the compound-treated sample at 450 nm to that of the no-compound, solvent only (DMSO)-treated sample. […] The IC50 values for the cytotoxic effect of each test compound in A549, HepG2, JeKo-1, and/or MDA-MB-231 cells are determined by plotting a dose-response curve to calculate the concentration of test compound that produces half of the maximum cytotoxic effect.

[3] = system: JeKo-1; assay: CCK-8 cell viability assay, JeKo-1; details: Homo sapiens; CCK-8, JeKo-1, 2-day or 3-day incubation, cytotoxic effect
Method: as §1

[4] = system: MYC protein; assay: Western blot of MYC protein in human cancer cell lines; details: about 1 μM, 2-day incubation, e.g., A549 or HepG2, GAPDH loading control, vs DMSO
Method: The level of reduction of MYC protein following treatment with test compounds is also assessed by Western blot according to the following protocol. The human cancer cell lines (e.g., A549 or HepG2) are seeded at 20,000 cells per well in a 96-well plate. After 1 day, the cells are treated with test compounds at a final concentration of about 1 μM. After a 2-day incubation period, the supernatant is removed from the wells and RIPA buffer is added to create cell lysates. The lysates are analyzed by Western blot and probed with a MYC-specific antibody (e.g., Proteintech 10828-1-AP) together with a GAPDH-specific antibody (e.g., Proteintech 10494-1-AP) to serve as loading control. The intensities of Western blot bands are quantified by FIJI (Image J). The relative expression value of MYC following treatment with a test compound is calculated by dividing the intensity of the MYC band of the sample with the intensity of its own GAPDH band. The value so obtained is presented as a percentage of that of the no-compound, solvent only (DMSO)-treated sample. A lower percentage of MYC protein in a sample with respect to the DMSO-treated sample indicates greater percentage reduction in MYC protein level due to the test compound, and vice versa.

[5] = system: MYC RNA; assay: RT-qPCR of MYC RNA in human cancer cell lines; details: 24 h, about 1 μM, 1-day incubation, e.g., A549, HepG2, beta-actin normalized, vs DMSO, read-out: % reduction of MYC RNA
Method: The level of reduction of MYC RNA following treatment with test compounds is assessed using RT-qPCR according to the following protocol. The human cancer cell lines (e.g., A549, HepG2) are seeded at 20,000 cells per well in a 96-well plate. After 1 day, the cells are treated with test compounds at a final concentration of about 1 μM. After a 1-day incubation period, the supernatant is removed from the wells and lysis solution from the Cells-to-CT 1-Step Power SYBR Green Kit (Invitrogen A25599) is added to create cell lysates, according to the kit manufacturer's protocol. The kit manufacturer's protocol is then followed to perform RT-qPCR for each sample using a pair of MYC-specific primers (e.g., SEQ ID NO: 4 and SEQ ID NO: 5) to detect MYC RNA, as well as a pair of beta-actin-specific primers (e.g., SEQ ID NO: 6 and SEQ ID NO: 7) to detect beta-actin RNA, which serves as a loading control. The relative expression levels of MYC and beta-actin RNAs are calculated using a standard curve generated from a dilution series of untreated cell lysates. The normalized level of MYC RNA following treatment with a test compound is calculated by dividing the relative expression level of MYC in the sample by the relative expression level of beta actin in the same sample. The value so obtained is presented as a percentage of that of the no-compound, solvent only (DMSO)-treated sample. A lower percentage of MYC RNA in a sample with respect to the DMSO-treated sample indicates greater percentage reduction in MYC RNA levels due to the test compound, and vice versa.

[6] = system: MYC protein; assay: MYC HTRF assay, MYC protein level in human cell lines; details: about 20 μM, 2-day incubation, human cell lines (e.g., A549, HepG2), vs DMSO-treated sample
Method: The MYC homogenous time-resolved fluorescence (HTRF) assay kit (CisBio/Perkin Elmer 63ADK053PEG) is used to quantify the level of MYC protein in human cell lines (e.g., A549, HepG2) following treatment with test compounds, according to the following protocol. Human cells cultured in DMEM-10% FBS media are seeded at 20,000 cells per well in a 96-well plate. After 1 day, the cells are treated with test compounds at a final concentration of about 20 μM. After a 2-day incubation period, the supernatant is removed from the wells and the HTRF assay is carried out according to the kit manufacturer's protocol. In brief, lysis buffer #4 is added to create cell lysates. 10 μL of cell lysate is added to 10 μL of premixed antibody solution (anti-human My c-Eu cryptate antibody and anti-human Myc-d2 antibody) prepared in detection buffer #3 in a 384-well low-volume white-walled plated. After 3 h of incubation, fluorescence readings are taken at the emission wavelengths of donor and acceptor fluorophores (620 nm and 665 nm respectively) using a HTRF-compatible plate reader. The ratio of acceptor and donor fluorescence emission signals for each sample is calculated by dividing the fluorescence signal at 665 nm by the signal at 620 nm, and further normalized by dividing with the concentration of total protein in that sample as determined by the BCA assay. The values so obtained are presented as a percentage of that of the no-compound, solvent only (DMSO)-treated samples. A lower percentage of MYC protein in a sample with respect to the DMSO-treated sample indicates greater percentage reduction in MYC protein level due to the test compound, and vice versa.

[7] = system: HEK-293; assay: CellTiter-Glo 2.0 cell viability assay, HEK-293; details: Homo sapiens, HEK293, 48 h; CellTiter-Glo 2.0, HEK-293, 2-day incubation
Method: (§2) The effect of test compounds on cell viability is also determined using the CellTiter-Glo 2.0 assay kit (Promega G9241) according to the following protocol. The human cancer cell line (e.g., HepG2) and a non-cancer human cell line (e.g., HEK-293), are seeded at 20,000 cells per well in a 96-well plate. After 1 day, the cells are treated with test compounds at various concentrations (e.g., 10 nM, 31.6 nM, 100 nM, 316 nM, 1 μM, 3.16 μM, 10 μM, 20 μM, etc.). After a 2-day incubation period, the CellTiter-Glo 2.0 assay is performed according to the kit manufacturer's protocol. […] The contents are mixed for 2 minutes on an orbital shaker to induce cell lysis, and incubated for 10 minutes at room temperature, following which the luminescent signal is measured using a microplate reader. […] The cytotoxic effect of test compounds at different concentrations is calculated by subtracting from 1 the ratio of the luminescence signal of the compound-treated sample to that of the no-compound, solvent only (DMSO)-treated sample. […] The IC50 values for the cytotoxic effect of each test compound in HepG2 cells are determined by plotting a dose-response curve to calculate the concentration of test compound that produces half of the maximum cytotoxic effect. […]

[8] = system: HEK-293; assay: ApoTox-Glo Triplex assay (live-dead ratio), HEK-293; details: Homo sapiens, HEK293, 48 h, HEK-293, 2-day incubation
Method: The effects of test compounds on cell viability and apoptosis are determined using the ApoTox-Glo Triplex assay kit (Promega G6320) according to the following protocol. The human cancer cell line (e.g., HepG2) and a non-cancer human cell line (e.g., HEK-293), are seeded at 20,000 cells per well in a 96-well plate. After 1 day, the cells are treated with test compounds at various final concentrations (e.g., 10 nM, 31.6 nM, 100 nM, 316 nM, 1 μM, 3.16 μM, 10 μM, 20 μM, etc.). After a 2-day incubation period, the ApoTox-Glo Triplex assay is performed according to the kit manufacturer's protocol. […] After incubation for 30 minutes at 37° C., the fluorescence signal is measured at two wavelength sets (400Ex/505Em) and (485Ex/520Em) to assess live-cell protease activity and dead-cell protease activity respectively. […] After incubation for 30 minutes at room temperature, the luminescent signal is measured using a microplate reader. […]
The cytotoxic effect of test compounds according to the ApoTox-Glo Triplex assay is calculated as follows. The live-dead ratio is calculated by dividing the fluorescence signal for live-cell protease activity with the fluorescence signal for dead-cell protease activity. […]

[9] = system: HepG2; assay: CellTiter-Glo 2.0 cell viability assay, HepG2; details: Homo sapiens, 48 h; CellTiter-Glo 2.0, HepG2, 2-day incubation
Method: as §2

[10] = system: A549; assay: CCK-8 cell viability assay, A549; details: Homo sapiens; CCK-8, A549, 2-day or 3-day incubation, cytotoxic effect
Method: The effect of test compounds on cell viability is determined using the CCK-8 assay kit (Dojindo CK04-1000) according to the following protocol. The human cancer cell lines (e.g., A549, HepG2, JeKo-1, MDA-MB-231, etc.) and non-cancer human cell lines (e.g., HEK-293, HaCaT, etc.), are seeded at 20,000 cells per well in a 96-well plate. After 1 day, the cells are treated with test compounds at various final concentrations (e.g., 10 nM, 31.6 nM, 100 nM, 316 nM, 1 μM, 3.16 μM, 10 μM, 20 μM, etc.). After a 2-day or 3-day incubation period, 10 μL of CCK-8 solution, which contains the WST-8 dye, is added to each well according to the kit manufacturer's protocol. After incubation for 1-4 hours, the absorbance at 450 nm is measured using a microplate reader. The absorbance at 450 nm measures the amount of WST-8 that is reduced to WST-8 formazan by cellular dehydrogenases, which is directly proportional to the number of living cells. The cytotoxic effect of test compounds at different concentrations is calculated by subtracting from 1 the ratio of absorbance of the compound-treated sample at 450 nm to that of the no-compound, solvent only (DMSO)-treated sample. […]

SMILES | IC50 [2] [µM] | % reduction of MYC protein [4] [%] | inhibition at 1 µM [5] [%] | further results
Cc1nc(C)c(-c2ccc(=O)n(CC3CCN(c4ncnc5ncccc45)CC3F)n2)s1 (stereo not shown) [6-(2,4-dimethyl-1,3-thiazol-5-yl)-2-(3-fluoro-1-pyrido[2,3-d]pyrimidin-4-ylpiperidin-4-yl)methylpyridazin-3-one] | 0.5 | – | – | IC50 [1]: 1.1 µM; IC50 [3]: 0.3 µM
O=c1ccc(-n2cncn2)nn1CC1CCN(c2ccc3nnc(C(F)(F)F)n3n2)CC1 [6-(1H-1,2,4-triazol-1-yl)-2-((1-(3-(trifluoromethyl)-[1,2,4]triazolo[4,3-b]pyridazin-6-yl)piperidin-4-yl)methyl)pyridazin-3(2H)-one] | 5.7 | 29 | 20 | –
Cc1nc(C)c(-c2ccc(=O)n(CC3CCN(c4ncnc5[nH]cnc45)CC3)n2)s1 [2-((1-(9H-purin-6-yl)piperidin-4-yl)methyl)-6-(2,4-dimethylthiazol-5-yl)pyridazin-3(2H)-one] | – | – | 1 | % reduction of MYC protein [6]: 17%
CC(=O)O[C@H]1C(=O)[C@@]2(C)[C@H]([C@H](OC(=O)c3ccccc3)[C@]3(O)C[C@H](OC(=O)[C@H](O)[C@@H](NC(=O)c4ccccc4)c4ccccc4)C(C)=C1C3(C)C)[C@]1(OC(C)=O)CO[C@@H]1C[C@@H]2O [paclitaxel, reference compound] | – | – | – | IC50 [7]: 27 µM; IC50 [8]: 6.9 µM; IC50 [9]: 7.5 µM
Cc1nc(N2CC(n3nc(-c4ccncc4)ccc3=O)C2)c2cnn(C)c2n1 [2-(1-(1,6-dimethyl-1H-pyrazolo[3,4-d]pyrimidin-4-yl)azetidin-3-yl)-6-(pyridin-4-yl)pyridazin-3(2H)-one] | – | 19 | – | –
Cc1cc(C)n(-c2ccc(=O)n(CC3CN(c4ccc5nnc(C)n5n4)C3)n2)n1 [6-(3,5-dimethyl-1H-pyrazol-1-yl)-2-((1-(3-methyl-[1,2,4]triazolo[4,3-b]pyridazin-6-yl)azetidin-3-yl)methyl)pyridazin-3(2H)-one] | – | 48 | 4 | –
O=c1ccc(-n2cccn2)nn1CC1CCN(c2ncnc3cc(F)ccc23)CC1 [2-((1-(7-fluoroquinazolin-4-yl)piperidin-4-yl)methyl)-6-(1H-pyrazol-1-yl)pyridazin-3(2H)-one] | – | – | 12 | % reduction of MYC protein [6]: 74%
Cc1nc(N2CCC(Cn3nc(-c4sc(C)nc4C)ccc3=O)CC2)c2ccncc2n1 [6-(2,4-dimethylthiazol-5-yl)-2-((1-(2-methylpyrido[3,4-d]pyrimidin-4-yl)piperidin-4-yl)methyl)pyridazin-3(2H)-one] | – | – | 5 | % reduction of MYC protein [6]: 16%
O=c1ccc(-n2cccn2)nn1CC1CCN(c2ccc3nnc(C(F)(F)F)n3n2)CC1 [6-(1H-pyrazol-1-yl)-2-((1-(3-(trifluoromethyl)-[1,2,4]triazolo[4,3-b]pyridazin-6-yl)piperidin-4-yl)methyl)pyridazin-3(2H)-one] | 18.5 | 33 | 19 | –
O=c1ccc(-c2ccncc2)nn1CC1CN(c2ncnc3[nH]cnc23)C1 [2-((1-(9H-purin-6-yl)azetidin-3-yl)methyl)-6-(pyridin-4-yl)pyridazin-3(2H)-one] | 6 | – | – | –
Cc1cc(C)n(-c2ccc(=O)n(C3CCN(c4nc5cccnc5n4C)CC3)n2)n1 [6-(3,5-dimethyl-1H-pyrazol-1-yl)-2-(1-(3-methyl-3H-imidazo[4,5-b]pyridin-2-yl)piperidin-4-yl)pyridazin-3(2H)-one] | 5.3 | 24 | – | –
Cc1cc(N2CCC(Cn3nc(-c4sc(C)nc4C)ccc3=O)CC2)ncn1 [6-(2,4-dimethylthiazol-5-yl)-2-((1-(6-methylpyrimidin-4-yl)piperidin-4-yl)methyl)pyridazin-3(2H)-one] | – | – | 19 | % reduction of MYC protein [6]: 19%
Cc1nc(C)c(-c2ccc(=O)n(CC3CCN(c4ncnc5ncccc45)CC3(F)F)n2)s1 (stereo not shown) [6-(2,4-dimethyl-1,3-thiazol-5-yl)-2-(3,3-difluoro-1-pyrido[2,3-d]pyrimidin-4-ylpiperidin-4-yl)methylpyridazin-3-one] | 0.3 | – | – | IC50 [1]: 1 µM; IC50 [10]: 1.8 µM; IC50 [3]: 0.2 µM
Cc1cncc(N2CCC(Cn3nc(-n4cncn4)ccc3=O)CC2)n1 [2-((1-(6-methylpyrazin-2-yl)piperidin-4-yl)methyl)-6-(1H-1,2,4-triazol-1-yl)pyridazin-3(2H)-one] | 11.2 | – | – | –
